Data published in patent US20260183274A1, “PDK1 REGULATORY COMPOUND AND COMPOSITION CONTAINING THE SAME” (PROVIBIO CO., LTD., priority 2024, published 2026).

Legend:
[1] = system: Human B Lymphocyte cell line, SU-DHL-8; assay: Relative cell viability CCK-8, SU-DHL-8; assay type: cell-based; conditions: Homo sapiens, SU-DHL-8, 48 h, 48 hours, untreated (DMSO) = 100%; for viability at 1 µM: read-out: Relative cell viability (%), SU-DHL-8, 1 μM; for viability at 10 µM: read-out: Relative cell viability (%), SU-DHL-8, 10 μM; for viability at 30 µM: read-out: Relative cell viability (%), SU-DHL-8, 30 μM; for viability at 50 µM: read-out: Relative cell viability (%), SU-DHL-8, 50 μM
How it was run: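 Cells grown in RPMI-1640 with 10% FBS, treated with compound at several concentrations, then given CCK-8 for 4 h at 37° C. Viability expressed as percent of DMSO-treated cells.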

[2] = system: T cells isolated from mouse spleens; assay: T cell proliferation inhibition (CFSE flow cytometry, anti-CD3/anti-CD28 stimulation); assay type: cell-based; conditions: Mus musculus, T-cell, 72 h, mouse spleen T cells, 3 days, read-out: Proliferation inhibition rate (%); for inhibition at 0.01 µM: compound 10 nM; for inhibition at 0.1 µM: compound 100 nM; for inhibition at 1 µM: compound 1 μM; for inhibition at 10 µM: compound 10 μM; for inhibition at 30 µM: compound 30 μM; for inhibition at 50 µM: compound 50 μM
How it was run: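 Proliferation inhibition (%) came from flow cytometry of CFSE dilution after 3 days' culture at 37 °C with compound (10 nM, 100 nM, 1, 10, 30, 50 μM; triplicate wells). Cells were magnetically purified T cells from C57BL/6 mouse spleens, 2×10^5 per well, stimulated with 0.5 μg/mL each anti-CD3 and anti-CD28.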

[3] = system: Human Breast Cancer cell line, MCF-7; assay: Relative cell viability CCK-8, MCF-7; assay type: cell-based; conditions: 48 hours
Protocol: (§1) Human-derived breast cancer cell line MCF-7, human-derived lung cancer cell line A549, human-derived colorectal cancer cell line HCT-116, human pancreatic cancer cell line AsPC-1, glioblastoma cell line A172, and melanoma cell line Malme-3M were obtained from the Korean Cell Bank. gastric cancer cell line SNU-719, and bladder cancer cell line T24 were cultured in RPMI-1640 medium containing 10% FBS.
(§2) Following stabilization, the cells were harvested using Trypsin-EDTA treatment, centrifuged at 1,200 rpm for 3 minutes, the supernatant was removed, and the cells were resuspended in the same medium. They were then seeded into a 96-well plate (Costar 96-well cell culture plate, Corning) at 100 μL per well, and the conditions were adjusted as indicated in Table 5.
(§3) The cells were cultured in a 5% CO2 incubator at 37° C. for 24 hours, and after stabilization of the cells, each plate was washed with 200 μL of PBS per well and treated with 50 μL of culture medium per well.
(§4) The compounds according to the present invention or the control group (DMSO) were added at concentrations of 0, 10, 30, and 50 μM in 50 μL aliquots to the plates, and the plates were cultured at 37° C. in a 5% CO2 incubator for 48 hours.
(§5) After that, 10 μL of CCK-8 was added to each well, and the plate was incubated again at 37° C. in a 5% CO2 incubator for 2 hours.
(§6) In other words, when the survival rate of untreated cells (DMSO) is set at 100%, the relative cell survival rate in each group treated with the drug at different concentrations is indicated.

[4] = system: Human Cervical Carcinoma cell line, HeLa; assay: Relative cell viability CCK-8, HeLa; assay type: cell-based; conditions: 48 hours
Protocol: Similarly, human-derived cervical cancer cell line HeLa and renal cancer cell line ACHN, obtained from the Korean Cell Bank, were cultured in DMEM medium containing 10% FBS, 100 U/mL penicillin, and 100 μg/mL streptomycin.
as §2, §3, §4, §5, §6

[5] = system: Human Gastric cancer cell, SNU-719; assay: Relative cell viability CCK-8, SNU-719; assay type: cell-based; conditions: 48 hours
Protocol: as §1, §2, §3, §5, §6

[6] = system: Human Pancreas Adenocarcinoma cell line, AsPC-1; assay: Relative cell viability CCK-8, AsPC-1; assay type: cell-based; conditions: 48 hours
Protocol: as §1, §2, §3, §5, §6

[7] = system: HCT-116 colon cancer cell lines; assay: Matrigel Invasion Assay, HCT-116; assay type: cell-based, human; conditions: 24 hours treatment, FIG. 30
Protocol: To evaluate the metastasis inhibitory efficacy of the compounds of the present invention on HCT-116 colon cancer cell lines, an Invasion Assay using Matrigel was performed to assess the cells' invasion ability.
First, Matrigel was thawed on ice in RPMI-1640 medium without FBS, then diluted with DMEM at a ratio of 1:20.
The diluted Matrigel mixture was applied to the upper chamber at 100 μl per well, and 750 μl of RPMI-1640 without FBS was added to the lower chamber.
The plates were then incubated at 37° C. for 1 hour to allow the Matrigel to solidify.
After coating, the Matrigel mixture in the upper chamber was removed using a pipette, and the chamber was washed with RPMI without FBS.
Human-derived colorectal cancer cell line HCT-116, obtained from the Korean Cell Bank, was cultured in RPMI-1640 medium containing 10% FBS.
Following stabilization, the cells were harvested using Trypsin-EDTA treatment, centrifuged at 1,200 rpm for 3 minutes, the supernatant was removed, and the cells were resuspended in the same medium, the medium in the lower chamber was replaced with 750 μl of RPMI-1640 supplemented with 10% FBS, and the cells were seeded into the upper chamber at a density of 5×10^4 cells/well.
The cells were cultured for 24 hours after attachment, and then the compounds according to the present invention (G078, G085, G086, G088, G089, PBK-2024-010, PBK-2025-010, PBK-2025-013, PBK-2025-016) and the control substance DMSO were diluted and added to the upper chamber after removing the medium.
Additionally, the medium in the lower chamber was replaced with fresh RPMI-1640 containing FBS, and the culture was continued.
After an additional 24 hours, the medium was removed, and 1 ml of methanol was added for 10 minutes to fix the cells.
Subsequently, 1 ml of Hematoxylin was added and reacted for 5 minutes, followed by 1 ml of Eosin, which was reacted for 30 seconds. The sample was then washed with distilled water (DW).
After staining was complete, any remaining cells in the upper chamber were removed. Finally, the infiltrated cells were observed under a microscope, photographed, and the degree of infiltration was analyzed.

[8] = system: Human Colorectal Carcinoma cell line, HCT-116; assay: Relative cell viability CCK-8, HCT-116; assay type: cell-based; conditions: Homo sapiens, HCT-116, 48 hours
Protocol: as §1, §2, §3, §5, §6

[9] = system: Human Bladder cancer cell, T24; assay: Relative cell viability CCK-8, T24; assay type: cell-based; conditions: Homo sapiens, 48 h
Protocol: as §1, §2, §3, §5, §6

Nc1ncccc1C(=O)NCCCCCCCCCCCCN1CCc2ccccc2C1 [Compound 3, 2-Amino-N-[12-(3,4-dihydro-1H-isoquinolin-2-yl)-dodecyl]-nicotinamide] gave a viability at 1 µM [1] of 29.1%, a viability at 10 µM [1] of 25.7% and a viability at 30 µM [1] of 24.7%. The viability at 50 µM [1] was 23.5%, the inhibition at 0.01 µM [2] was 4.99% and the inhibition at 0.1 µM [2] was 0%. The inhibition at 1 µM [2] was 0%, the inhibition at 10 µM [2] was 88.3% and the inhibition at 30 µM [2] was 100%. The inhibition at 50 µM [2] was 100%, the viability at 1 µM ([3]; MCF7, 1 μM) was 35.4% and the viability at 10 µM ([3]; MCF7, 10 μM) was 9.1%. The viability at 30 µM ([3]; MCF7, 30 μM) was 4.02%, the viability at 50 µM ([3]; MCF7, 50 μM) was 1.95% and the viability at 1 µM ([4]; 1 μM) was 16.4%. The viability at 10 µM ([4]; 10 μM) was 3.26%, the viability at 30 µM ([4]; 30 μM) was 1.07% and the viability at 50 µM ([4]; 50 μM) was 0.73%.
O=C(NCCCCCCCCCCCCN1CCN2CCCC2C1)c1cccnc1 (stereo not drawn) [Compound 23, N-(12-(hexahydropyrrolo[1,2-a]pyrazin-2 (1H)-yl)dodecyl) nicotinamide] showed a viability at 1 µM ([5]; 1 μM) of 36.1%, a viability at 10 µM ([5]; 10 μM) of 35.9% and a viability at 30 µM ([5]; 30 μM) of 40.4%. The viability at 50 µM ([5]; 50 μM) was 35.6%, the viability at 1 µM [1] was 16.1% and the viability at 10 µM [1] was 15.7%. The viability at 30 µM [1] was 9.17%, the viability at 50 µM [1] was 1.97% and the viability at 1 µM ([6]; ASPC1, 1 μM) was 42.4%. For the same compound, the viability at 10 µM ([6]; ASPC1, 10 μM) was 44.5%, the viability at 30 µM ([6]; ASPC1, 30 μM) was 42.7% and the viability at 50 µM ([6]; ASPC1, 50 μM) was 42%. For the same compound, the inhibition at 0.01 µM [2] was -12.8%, the inhibition at 0.1 µM [2] was 100% and the inhibition at 1 µM [2] was 100%. For the same compound, the inhibition at 10 µM [2] was 100%, the inhibition at 30 µM [2] was 100% and the inhibition at 50 µM [2] was 100%. The “Number of infiltrated cells (invasion)” value [7] was “reduction in the number of infiltrated cells”, the viability at 1 µM ([8]; 1 μM) was 13.1% and the viability at 10 µM ([8]; 10 μM) was 14.6%. The viability at 30 µM ([8]; 30 μM) was 14%, the viability at 50 µM ([8]; 50 μM) was 13% and the viability at 1 µM ([9]; 1 μM) was 10%. The viability at 10 µM ([9]; 10 μM) was 10.1%, the viability at 30 µM ([9]; 30 μM) was 9.53% and the viability at 50 µM ([9]; 50 μM) was 9.46%.
